Laboratory results taken from patent US11160796B2, “Anti-androgens for the treatment of non-metastatic castration-resistant prostate cancer” (priority 2017, dated 2021).
Entries after “also recorded” stand apart in the source; their conditions may differ.

Tests used:
LNCaP/AR cells = test: In vitro model of CRPC (AR-over-expressing prostate cancer cells); type: cell-based
[1] = biological target: T1, human cytochrome P450 isoform CYP2C8 (Homo sapiens, UniProt P10632); test: Cytochrome P450 inhibition: CYP2C8; type: in vitro ADME
T1 sequence (P10632 1-490): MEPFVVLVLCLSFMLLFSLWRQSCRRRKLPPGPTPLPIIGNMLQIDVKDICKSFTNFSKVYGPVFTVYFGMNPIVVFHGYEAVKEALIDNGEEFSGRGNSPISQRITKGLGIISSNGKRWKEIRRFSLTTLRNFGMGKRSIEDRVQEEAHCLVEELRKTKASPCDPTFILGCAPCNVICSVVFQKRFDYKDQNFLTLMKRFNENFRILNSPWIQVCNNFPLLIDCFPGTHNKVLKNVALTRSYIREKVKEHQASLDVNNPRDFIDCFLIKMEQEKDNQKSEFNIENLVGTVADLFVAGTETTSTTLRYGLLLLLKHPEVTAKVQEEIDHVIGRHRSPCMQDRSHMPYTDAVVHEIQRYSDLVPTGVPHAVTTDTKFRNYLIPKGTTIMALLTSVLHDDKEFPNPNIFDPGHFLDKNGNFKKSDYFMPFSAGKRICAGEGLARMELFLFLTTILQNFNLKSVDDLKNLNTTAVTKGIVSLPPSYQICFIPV

[2] = Single-dose and repeat-dose toxicology studies in male rats
Description: Single-dose and repeat-dose toxicology studies up to 13 weeks of dosing have been conducted in male Sprague Dawley (SD) rats and male Beagle dogs (repeat-dose studies only).

[3] = Dedicated QT study in patients with CRPC; type: in vivo, human; details: 240 mg once daily
Description: There was no difference greater than 20 ms in the mean QT interval change from baseline, based on the Fridericia correction method, across all timepoints at steady-state.
The maximum mean QTcF change from baseline was 12.4 ms (2-sided 90% upper CI: 16.0 ms).

[4] = Drug-drug interaction studies: effect of other medications on apalutamide; type: in vivo, human
CYP2C8 = biological target: T2, CYP2C8 (Homo sapiens, UniProt P10632); test: Drug-drug interaction study, cocktail approach: CYP2C8 substrate; details: in vivo
T2 construct: from tissue; host or cells: human subjects, in vivo (clinical pharmacology)
T2 sequence (P10632 1-490): T1 sequence (P10632 1-490)

BCRP/OATP1B1 = test: Drug-drug interaction study, cocktail approach: rosuvastatin; parameters: species or system human; details: in vivo
[5] = tested on: organic cation transporter 2 (OCT2), organic anion transporter 3 (OAT3) and multidrug and toxin extrusions (MATEs); test: In vitro transporter inhibition: OCT2, OAT3, MATEs; type: in vitro ADME
[6] = tested on: BCRP, OATP1B1, and OATP1B3; details: not told

What does the source list for `CNC(=O)c1ccc(N2C(=S)N(c3cnc(C#N)c(C(F)(F)F)c3)C(=O)C23CCC3)cc1F` [apalutamide, 4-[7-(6-cyano-5-trifluoromethylpyridin-3-yl)-8-oxo-6-thioxo-5,7-diazaspiro[3.4]oct-5-yl]-2-fluoro-N-methylbenzamide]?
agonist properties in an in vitro model of CRPC (LNCaP/AR cells; LNCaP/AR cells): no significant agonist properties; Gene transcription of the androgen-driven genes, PSA and TMPRSS2 (LNCaP/AR cells; in vitro): inhibited; IC50 [1]: 13.9 µM; well tolerated dose ([2]; 13-weeks study, once daily oral gavage, male SD rats): up to 100 mg/kg/day; dose with reproductive system findings (atrophy, aspermia/hypospermia, degeneration, hyperplasia or hypertrophy) ([2]; male, Sprague Dawley, rat, in vivo): > 25 mg/kg/day; NOAEL at 13 weeks ([2]; male, Sprague-Dawley, rat, in vivo): 100 mg/kg/day; increase in cholesterol from controls ([2]; rat, in vivo, 150 mg/kg/day): greater than 200%; maximum mean QTcF change from baseline ([3]; 45 patients with CRPC): 12.4 ms; difference in mean QT interval change from baseline (Fridericia correction) ([3]; all timepoints at steady-state): ≤ 20 ms; increase in AUC of apalutamide ([4]; 240 mg single dose with gemfibrozil): 68%; decrease in Cmax of apalutamide ([4]; 240 mg single dose with gemfibrozil (strong CYP2C8 inhibitor)): 21%; AUC of apalutamide ([4]; 240 mg single dose with itraconazole): similar; decrease in Cmax of apalutamide ([4]; 240 mg single dose with itraconazole (strong CYP3A4 inhibitor)): 22%; changes in exposure to the CYP2C8 substrate (CYP2C8): did not cause clinically meaningful changes; BCRP/OATP1B1 inducer clinically (BCRP/OATP1B1): weak and weak inducer; impact on Cmax of rosuvastatin (BCRP/OATP1B1): no impact; inhibition of OCT2, OAT3 and MATEs [5]: cannot be excluded; also recorded: inhibit; substrate for BCRP, OATP1B1, and OATP1B3 [6]: not BCRP, OATP1B1, and OATP1B3
